Laboratory results: patent US9556179B2 (BRISTOL-MYERS SQUIBB COMPANY, priority 2012, dated 2017)
pIC50: −log10 of the molar value.

Assays:
[1] = target: CK1ε (Homo sapiens (Human), UniProt P49674); experiment: CK1ε kinase assay (Caliper LABCHIP electrophoretic separation of fluoresceinated peptide substrate and product); assay type: biochemical; conditions: 200 pM enzyme, 50 μM ATP, 22 hours at room temperature
In short: (§1)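 Eleven-concentration compound series in kinase reactions run for 22 hours at room temperature. Terminated with EDTA, with product conversion read by electrophoretic separation. Non-linear regression gave IC50.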

[2] = target: CK1δ (Homo sapiens (Human), UniProt P48730); experiment: CK1δ kinase assay (Caliper LABCHIP electrophoretic separation of fluoresceinated peptide substrate and product); assay type: biochemical; conditions: 200 pM enzyme, 50 μM ATP, 22 hours at room temperature
In short: as §1

Chain of CK1ε (P49674 whole entry): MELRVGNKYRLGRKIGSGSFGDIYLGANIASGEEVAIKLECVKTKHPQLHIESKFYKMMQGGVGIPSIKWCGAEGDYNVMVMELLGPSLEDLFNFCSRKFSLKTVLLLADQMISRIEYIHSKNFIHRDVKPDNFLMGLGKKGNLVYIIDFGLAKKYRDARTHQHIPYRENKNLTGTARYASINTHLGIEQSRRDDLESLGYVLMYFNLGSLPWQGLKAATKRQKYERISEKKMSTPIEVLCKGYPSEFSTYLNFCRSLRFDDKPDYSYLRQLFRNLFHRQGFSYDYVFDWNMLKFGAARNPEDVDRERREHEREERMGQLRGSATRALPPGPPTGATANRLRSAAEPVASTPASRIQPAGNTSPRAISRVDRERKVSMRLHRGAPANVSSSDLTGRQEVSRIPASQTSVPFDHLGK
Chain of CK1δ (P48730 whole entry): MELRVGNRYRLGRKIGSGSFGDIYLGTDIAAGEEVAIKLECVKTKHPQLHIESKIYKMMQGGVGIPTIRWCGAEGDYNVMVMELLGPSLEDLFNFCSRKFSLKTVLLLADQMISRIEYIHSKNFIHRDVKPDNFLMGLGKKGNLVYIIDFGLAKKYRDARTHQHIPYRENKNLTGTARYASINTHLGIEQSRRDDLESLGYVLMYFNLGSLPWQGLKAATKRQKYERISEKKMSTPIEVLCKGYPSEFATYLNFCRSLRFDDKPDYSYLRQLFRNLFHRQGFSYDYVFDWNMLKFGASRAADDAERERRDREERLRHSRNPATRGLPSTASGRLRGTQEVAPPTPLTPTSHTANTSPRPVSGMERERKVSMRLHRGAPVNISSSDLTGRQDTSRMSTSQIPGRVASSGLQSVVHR

## Cc1nc(-c2ccc(F)cc2)c(-c2ccc3nc(NC(=O)c4ccc(CN5CCCC5)cc4)cn3n2)n1C [Compound 395, N-(6-(4-(4-fluorophenyl)-1,2-dimethyl-1H-imidazol-5-yl)imidazo[1,2-b]pyridazin-2-yl)-4-(pyrrolidin-1-ylmethyl) benzamide]
[1]
  pIC50: 7.97
[2]
  pIC50: 8.26

## O=C(Nc1cn2nc(-c3c(-c4ccc(F)cc4)ncn3C3CCNCC3)ccc2n1)c1cc(F)nc(F)c1 [Compound 87, 2,6-difluoro-N-(6-(4-(4-fluorophenyl)-1-(piperidin-4-yl)-1H-imidazol-5-yl)imidazo[1,2-b]pyridazin-2-yl)isonicotinamide]
[1]
  pIC50: 8.98
[2]
  pIC50: 9.40

## Cc1nc(-c2ccc(F)cc2)c(-c2ccc3nc(NC(=O)c4cc5ccccc5cn4)cn3n2)n1C [Compound 311, N-(6-(4-(4-fluorophenyl)-1,2-dimethyl-1H-imidazol-5-yl)imidazo[1,2-b]pyridazin-2-yl) isoquinoline-3-carboxamide]
[1]
  pIC50: 7.33
[2]
  pIC50: 7.47

## Cc1nc(-c2ccc(F)cc2)c(-c2ccc3nc(NC(=O)c4ncc[nH]4)cn3n2)n1C [Compound 373, N-(6-(4-(4-fluorophenyl)-1,2-dimethyl-1H-imidazol-5-yl)imidazo[1,2-b]pyridazin-2-yl)-1H-imidazole-2-carboxamide]
[1]
  pIC50: 6.75
[2]
  pIC50: 7.73

## CC(C)(C)C(=O)Nc1cn2nc(-c3[nH]cnc3-c3ccc(F)cc3)ccc2n1 [Compound 276, N-(6-(4-(4-fluorophenyl)-1H-imidazol-5-yl)imidazo[1,2-b]pyridazin-2-yl)pivalamide]
[1]
  pIC50: 7.44
[2]
  pIC50: 8.41

## O=C(Nc1cn2nc(-c3c(-c4ccc(F)cc4)ncn3C3CCN(CC4CC4)CC3)ccc2n1)c1ccnc(F)c1 [Compound 28, N-(6-(1-(1-(cyclopropylmethyl)piperidin-4-yl)-4-(4-fluorophenyl)-1H-imidazol-5-yl)imidazo[1,2-6]pyridazin-2-yl)-2-fluoroisonicotinamide]
[1]
  pIC50: 8.90
[2]
  pIC50: 9.68

## Cc1nc(-c2ccc(F)cc2)c(-c2ccc3nc(NC(=O)c4ccc5ncccc5n4)cn3n2)n1C [Compound 312, N-(6-(4-(4-fluorophenyl)-1,2-dimethyl-1H-imidazol-5-yl)imidazo[1,2-b]pyridazin-2-yl)-1,5-naphthyridine-2-carboxamide]
[1]
  pIC50: 7.71
[2]
  pIC50: 8.08

## Cc1nc(-c2ccc(F)cc2)c(-c2ccc3nc(NC(=O)c4ccn(C)n4)cn3n2)n1C [Compound 354, N-(6-(4-(4-fluorophenyl)-1,2-dimethyl-1H-imidazol-5-yl)imidazo[1,2-b]pyridazin-2-yl)-1-methyl-1H-pyrazole-3-carboxamide]
[1]
  pIC50: 7.97
[2]
  pIC50: 8.85

## O=C(Nc1cn2nc(-c3c(-c4ccc(F)cc4)nc4n3CCOC4)ccc2n1)c1ccnc(F)c1 [Compound 447, 2-Fluoro-N-(6-(2-(4-fluorophenyl)-6,8-dihydro-5H-imidazo[2,1-c][1,4]oxazin-3-yl)imidazo[1,2-b]pyridazin-2-yl)isonicotinamide]
[1]
  pIC50: 8.24
[2]
  pIC50: 9.40

## COC(=O)N1CCC(n2cnc(-c3ccc(F)cc3)c2-c2ccc3nc(NC(=O)c4ccnc(F)c4)cn3n2)CC1 [Compound 84, methyl 4-(5-(2-(2-fluoroisonicotinamido)imidazo[1,2-b]pyridazin-6-yl)-4-(4-fluorophenyl)-1H-imidazol-1-yl)piperidine-1-carboxylate]
[1]
  pIC50: 9.01
[2]
  pIC50: 9.75

## O=C(Nc1cn2nc(-c3c(-c4ccc(F)cc4)ncn3C3CCN(C(=O)c4ccon4)CC3)ccc2n1)c1ccnc(F)c1 [Compound 39, 2-fluoro-N-(6-(4-(4-fluorophenyl)-1-(1-(isoxazole-3-carbonyl)piperidin-4-yl)-1H-imidazol-5-yl)imidazo[1,2-b]pyridazin-2-yl)isonicotinamide]
[1]
  pIC50: 8.65
[2]
  pIC50: 8.72

## O=C(Nc1cn2nc(-c3c(-c4ccc(F)cc4)nc4n3CCN(C(=O)NCCC(F)(F)F)C4)ccc2n1)c1ccnc(F)c1 [Compound 486, 3-(2-(2-Fluoroisonicotinamido)imidazo[1,2-b]pyridazin-6-yl)-2-(4-fluorophenyl)-N-(3,3,3-trifluoropropyl)-5,6-dihydroimidazo[1,2-a]pyrazine-7(8H)-carboxamide]
[1]
  pIC50: 8.19
[2]
  pIC50: 9.15

## O=C(Nc1cn2nc(-c3c(-c4ccc(F)cc4)ncn3C3CCN(C(=O)c4ccon4)CC3)ccc2n1)c1cc(F)nc(F)c1 [Compound 93, 2,6-difluoro-N-(6-(4-(4-fluorophenyl)-1-(1-(isoxazole-3-carbonyl)piperidin-4-yl)-1H-imidazol-5-yl)imidazo[1,2-b]pyridazin-2-yl)isonicotinamide]
[1]
  pIC50: 8.61
[2]
  pIC50: 9.41

## O=C(Nc1cn2nc(-c3c(-c4ccc(F)cc4)nc4n3CCC4)ccc2n1)c1ccnc(F)c1 [Compound 436, 2-Fluoro-N-(6-(2-(4-fluorophenyl)-6,7-dihydro-5H-pyrrolo[1,2-a]imidazol-3-yl)imidazo[1,2-b]pyridazin-2-yl)isonicotinamide]
[1]
  pIC50: 8.70
[2]
  pIC50: 9.40

## O=C(Nc1cn2nc(-c3c(-c4ccc(F)cc4)nc4n3CCCC4)ccc2n1)c1ccnc(F)c1 [Compound 441, 2-Fluoro-N-(6-(2-(4-fluorophenyl)-5,6,7,8-tetrahydroimidazo[1,2-a]pyridin-3-yl)imidazo[1,2-b]pyridazin-2-yl)isonicotinamide]
[1]
  pIC50: 8.27
[2]
  pIC50: 9.10

## O=C(Nc1cn2nc(-c3c(-c4ccc(F)cc4)ncn3C3CCN(Cc4ccc(F)cc4)CC3)ccc2n1)c1ccnc(F)c1 [Compound 15, 2-fluoro-N-(6-(1-(1-(4-fluorobenzyI)piperidin-4-yl)-4-(4-fluorophenyl)-1H-imidazol-5-yl)imidazo[1,2-b]pyridazin-2-yl)isonicotinamide]
[1]
  pIC50: 7.85
[2]
  pIC50: 9.67

## Cc1c(C(=O)Nc2cn3nc(-c4c(-c5ccc(F)cc5)nc(C)n4C)ccc3n2)cnn1C [Compound 381, N-(6-(4-(4-fluorophenyl)-1,2-dimethyl-1H-imidazol-5-yl)imidazo[1,2-b]pyridazin-2-yl)-1,5-dimethyl-1H-pyrazole-4-carboxamide]
[1]
  pIC50: 8.43
[2]
  pIC50: 9.12

## O=C(Nc1cn2nc(-c3c(-c4ccc(F)cc4)nc4ccccn34)ccc2n1)c1ccccc1 [Compound 191, N-(6-(2-(4-fluorophenyl)imidazo[1,2-a]pyridin-3-yl)imidazo[1,2-b]pyridazin-2-yl)benzamide]
[1]
  pIC50: 8.52
[2]
  pIC50: 8.68

## O=C(Nc1cn2nc(-c3c(-c4ccc(F)cc4)ncn3C3CCN(Cc4ncc[nH]4)CC3)ccc2n1)c1ccnc(F)c1 [Compound 18, N-(6-(1-(1-((1H-imidazol-2-yl)methyl)piperidin-4-yl)-4-(4-fluorophenyl)-1H-imidazol-5-yl)imidazo[1,2-b]pyridazin-2-yl)-2-fluoroisonicotinamide]
[1]
  pIC50: 9.22
[2]
  pIC50: 9.59

## O=C(Nc1cn2nc(-c3c(-c4ccc(F)cc4)nc4n3CCN(C(=O)C3(C(F)(F)F)CC3)C4)ccc2n1)c1ccnc(F)c1 [Compound 472, 2-Fluoro-N-(6-(2-(4-fluorophenyl)-7-(1-(trifluoromethyl)cyclopropanecarbonyl)-5,6,7,8-tetrahydroimidazo[1,2-a]pyrazin-3-yl)imidazo[1,2-b]pyridazin-2-yl)isonicotinamide]
[1]
  pIC50: 8.35
[2]
  pIC50: 9.22

## Cc1nc(-c2ccc(F)cc2)c(-c2ccc3nc(NC(=O)c4coc(-c5ccncc5)n4)cn3n2)n1C [Compound 304, N-(6-(4-(4-fluorophenyl)-1,2-dimethyl-1H-imidazol-5-yl)imidazo[1,2-b]pyridazin-2-yl)-2-(pyridin-4-yl)oxazole-4-carboxamide]
[1]
  pIC50: 7.31
[2]
  pIC50: 8.46

## CN1CCC(n2cnc(-c3ccc(F)cc3)c2-c2ccc3nc(NC(=O)c4ccncc4)cn3n2)CC1 [Compound 2]
[1]
  pIC50: 8.61
[2]
  pIC50: 8.60

## CC(C)(C)c1cc(C(=O)Nc2cn3nc(-c4c(-c5ccc(F)cc5)nc5ccccn45)ccc3n2)ccn1 [Compound 197, 2-(tert-butyl)-N-(6-(2-(4-fluorophenyl)imidazo[1,2-a]pyridin-3-yl)imidazo[1,2-b]pyridazin-2-yl)isonicotinamide]
[1]
  pIC50: 8.05
[2]
  pIC50: 8.52

## O=C(Nc1cn2nc(-c3c(-c4ccc(F)cc4)ncn3C3CCN(C(=O)C4(C(F)(F)F)CCC4)CC3)ccc2n1)c1ccnc(F)c1 [Compound 49, 2-fluoro-N-(6-(4-(4-fluorophenyl)-1-(1-(1-(trifluoromethyl)cyclobutanecarbonyl)piperidin-4-yl)-1H-imidazol-5-yl)imidazo[1,2-b]pyridazin-2-yl)isonicotinamide]
[1]
  pIC50: 8.13
[2]
  pIC50: 8.98

## O=C(Nc1cn2nc(-c3c(-c4ccc(F)cc4)nc4n3CCN(C(=O)C3(C(F)(F)F)CCC3)C4)ccc2n1)c1ccnc(F)c1 [Compound 467, 2-Fluoro-N-(6-(2-(4-fluorophenyl)-7-(1-(trifluoromethyl)cyclobutanecarbonyl)-5,6,7,8-tetrahydroimidazo[1,2-a]pyrazin-3-yl)imidazo[1,2-b]pyridazin-2-yl)isonicotinamide]
[1]
  pIC50: 8.21
[2]
  pIC50: 9.10

## N#Cc1ccc(-c2nc(C(F)(F)F)c(C(=O)Nc3cn4nc(-c5c(-c6ccc(F)cc6)nc6ccccn56)ccc4n3)s2)cc1 [Compound 190, 2-(4-cyanophenyl)-N-(6-(2-(4-fluorophenyl)imidazo [1,2-a]pyridin-3-yl)imidazo [1,2-b]pyridazin-2-yl)-4-(trifluoromethyl)thiazole-5-carboxamide]
[1]
  pIC50: 8.22
[2]
  pIC50: 8.32

## Cn1ccnc1CN1CCC(n2cnc(-c3ccc(F)cc3)c2-c2ccc3nc(NC(=O)c4ccnc(F)c4)cn3n2)CC1 [Compound 27, 2-fluoro-N-(6-(4-(4-fluorophenyl)-1-(1-((1-methyl-1H-imidazol-2-yl)methyl)piperidin-4-yl)-1H-imidazol-5-yl)imidazol[1,2-b]pyridazin-2-yl)isonicotinamide]
[1]
  pIC50: 8.95
[2]
  pIC50: 9.58
